Data published in article PMC12566593, “Effects of Different Centrifugation Parameters on Equilibrium Solubility Measurements” (Methods and Protocols, 2025).
Values after ≈ are worked out from the molar mass of the structure shown. Read-outs that look alike come from different tables or passages of the source.

Key:
[1] = cited from earlier work
[2] = cited from earlier work; for Filtration: Result Range: % of reference, all filters
[3] = Ionization state calculated from pKa and buffer pH; assay type: physicochemical
[4] = Equilibrium solubility, saturation shake-flask, centrifugation as phase separation; conditions: for solubility thermodynamic at 24 h / solubility thermodynamic: Britton-Robinson buffer; for solubility thermodynamic at 24 h: continuously stirred, no sedimentation; for solubility thermodynamic: pH 7.4, Equilibrium solubility S sed, sedimented before centrifugation
[5] = Equilibrium solubility, saturation shake-flask, sedimentation as phase separation (reference, standard protocol); conditions: for solubility: Britton-Robinson buffer, 6 h stirring, 18 h sedimentation, 25 °C
[6] = cited from earlier work; remark: listed apart in the source
[7] = pH 7.4

In the case of `NS(=O)(=O)c1cc2c(cc1Cl)NCNS2(=O)=O` [HCT, hydrochlorothiazide], the pKa ([1]; first pKa for HCT) is listed as 8.75, the “pKa (second value)” value ([1]; second pKa of the diprotic acid) is listed as 9.96 and the “Filtration: Result Range” value ([2]; pH 6.0) is listed as 83–103%. The “Filtration: Closest to Reference (100%)” value ([2]; pH 6.0) was 102%, the “Filtration: Result Range” value ([2]; pH 8.8) was 75–100% and the “Filtration: Closest to Reference (100%)” value ([2]; pH 8.8) was 100%. For the same compound, the “Filtration: Result Range” value ([2]; pH 11.0) was 65–119%, the “Filtration: Closest to Reference (100%)” value ([2]; pH 11.0) was 100% and the “Fraction in dianionic form” value ([3]; pH 8.8) was 4%. For the same compound, the Fraction monoanionic ([3]; pH 8.8) was 51% and the Fraction unionized ([3]; pH 8.8) was 45%.

Work on `O=C(O)Cc1ccccc1Nc1c(Cl)cccc1Cl` [DICL-NA, Diclofenac sodium] yielded a solubility thermodynamic at 24 h ([4]; 25 °C, pH 10, aqueous buffer, thermodynamic from solid, Equilibrium solubility S stir, pH 10.0, 10,000 rpm, 20 min) of 11200 µg/mL, a solubility thermodynamic at 24 h ([4]; pH 2, Equilibrium solubility S stir, pH 2.0, 5000 rpm, 5 min) of 1.64 ± 0.04 µg/mL and a solubility thermodynamic at 24 h ([4]; pH 2, Equilibrium solubility S stir, pH 2.0, 5000 rpm, 10 min) of 1.52 ± 0.22 µg/mL. It also gave a solubility thermodynamic at 24 h ([4]; pH 2, Equilibrium solubility S stir, pH 2.0, 5000 rpm, 20 min) of 1.71 ± 0.07 µg/mL, a solubility thermodynamic at 24 h ([4]; pH 2, Equilibrium solubility S stir, pH 2.0, 10,000 rpm, 5 min) of 1.82 ± 0.07 µg/mL and a solubility thermodynamic at 24 h ([4]; pH 2, Equilibrium solubility S stir, pH 2.0, 10,000 rpm, 10 min) of 1.78 ± 0.07 µg/mL. The solubility thermodynamic at 24 h ([4]; pH 2, Equilibrium solubility S stir, pH 2.0, 10,000 rpm, 20 min) was 2 ± 0.13 µg/mL, the solubility thermodynamic at 24 h ([4]; pH 4, Equilibrium solubility S stir, pH 4.0, 5000 rpm, 5 min) was 2.7 ± 0.1 µg/mL and the solubility thermodynamic at 24 h ([4]; pH 4, Equilibrium solubility S stir, pH 4.0, 5000 rpm, 10 min) was 2.69 ± 0.24 µg/mL. For the same compound, the solubility thermodynamic at 24 h ([4]; pH 4, Equilibrium solubility S stir, pH 4.0, 5000 rpm, 20 min) was 2.58 ± 0.16 µg/mL, the solubility thermodynamic at 24 h ([4]; pH 4, Equilibrium solubility S stir, pH 4.0, 10,000 rpm, 5 min) was 2.79 ± 0.2 µg/mL and the solubility thermodynamic at 24 h ([4]; pH 4, Equilibrium solubility S stir, pH 4.0, 10,000 rpm, 10 min) was 2.8 ± 0.11 µg/mL. The solubility thermodynamic at 24 h ([4]; pH 4, Equilibrium solubility S stir, pH 4.0, 10,000 rpm, 20 min) was 2.88 ± 0.18 µg/mL, the solubility thermodynamic at 24 h ([4]; pH 10, Equilibrium solubility S stir, pH 10.0, 5000 rpm, 10 min) was 9810 ± 318 µg/mL and the solubility thermodynamic at 24 h ([4]; pH 10, Equilibrium solubility S stir, pH 10.0, 5000 rpm, 20 min) was 10700 µg/mL. For the same compound, the solubility thermodynamic at 24 h ([4]; pH 10, Equilibrium solubility S stir, pH 10.0, 10,000 rpm, 5 min) was 9660 ± 760 µg/mL, the “Centrifugation: Closest to Reference (100%)” value (“Centrifugation … (100%)” below) ([4]; pH 2.0) was 100% and the “Centrifugation … (100%)” value ([4]; pH 4.0) was 99%. For the same compound, the “Centrifugation … (100%)” value ([4]; pH 10.0) was 98%, the “Measured concentration after filtration” value ([2]; nylon filter, low pH values) was “dropped to zero” and the “Filtration: Result Range” value ([2]; pH 2.0) was 0–164%. For the same compound, the “Filtration: Closest to Reference (100%)” value ([2]; pH 2.0) was 93%, the “Filtration: Result Range” value ([2]; pH 4.0) was 0–103% and the “Filtration: Closest to Reference (100%)” value ([2]; pH 4.0) was 103%. The “Filtration: Result Range” value ([2]; pH 10.0) was 64–99%, the “Filtration: Closest to Reference (100%)” value ([2]; pH 10.0) was 99% and the Fraction ionized ([3]; pH 2.0) was “about 1%”. The Fraction ionized ([3]; pH 4.0) was “around 50%”, the solubility ([5]; pH 2, Solubility (reference), pH 2.0) was 1.67 ± 0.05 µg/mL and the solubility ([5]; pH 10, Solubility (reference), pH 10.0) was 9470 ± 327 µg/mL. The “Increase of solubility compared to the unionized form” value ([5]; pH 10.0 (fully ionized) vs unionized form) was 5670 fold.

In the case of `CC(=O)[C@H]1CC[C@H]2[C@@H]3CCC4=CC(=O)CC[C@]4(C)[C@H]3CC[C@]12C` [PROG, progesterone], the solubility thermodynamic ([4]; pH 7.4, 5000 rpm, 5 min) is reported as 10.9 ± 0.09 µg/mL (≈ 34.7 µM), the solubility thermodynamic ([4]; pH 7.4, 5000 rpm, 10 min) is reported as 10.9 ± 0.09 µg/mL (≈ 34.7 µM) and the solubility thermodynamic ([4]; pH 7.4, 5000 rpm, 20 min) is reported as 11.5 ± 0.06 µg/mL (≈ 36.6 µM). For the same compound, the solubility thermodynamic ([4]; pH 7.4, 10,000 rpm, 5 min) was 11 ± 0.12 µg/mL (≈ 35 µM), the solubility thermodynamic ([4]; pH 7.4, 10,000 rpm, 10 min) was 11.6 ± 0.11 µg/mL (≈ 36.9 µM) and the solubility thermodynamic ([4]; pH 7.4, 10,000 rpm, 20 min) was 12.4 ± 0.06 µg/mL (≈ 39.4 µM). It also gave a solubility thermodynamic at 24 h ([4]; pH 7.4, Equilibrium solubility S stir, pH 7.4, 5000 rpm, 5 min) of 11 ± 0.06 µg/mL (≈ 35 µM), a solubility thermodynamic at 24 h ([4]; pH 7.4, Equilibrium solubility S stir, pH 7.4, 5000 rpm, 10 min) of 11.3 ± 0.14 µg/mL (≈ 35.9 µM) and a solubility thermodynamic at 24 h ([4]; pH 7.4, Equilibrium solubility S stir, pH 7.4, 5000 rpm, 20 min) of 12.8 ± 0.05 µg/mL (≈ 40.7 µM). For the same compound, the solubility thermodynamic at 24 h ([4]; pH 7.4, Equilibrium solubility S stir, pH 7.4, 10,000 rpm, 5 min) was 11 ± 0.18 µg/mL (≈ 35 µM), the solubility thermodynamic at 24 h ([4]; pH 7.4, Equilibrium solubility S stir, pH 7.4, 10,000 rpm, 10 min) was 11.7 ± 0.14 µg/mL (≈ 37.2 µM) and the solubility thermodynamic at 24 h ([4]; pH 7.4, Equilibrium solubility S stir, pH 7.4, 10,000 rpm, 20 min) was 13.3 ± 0.2 µg/mL (≈ 42.3 µM). The “Increase in measured solubility caused by centrifugation” value ([4]; vs reference, pH 7.4) was “at least 20%”, the “Filtration: Result Range” value ([2]; pH 7.4) was 55–98% and the “Filtration: Closest to Reference (100%)” value ([2]; pH 7.4) was 98%. The solubility ([5]; pH 7.4, Solubility (reference), pH 7.4) was 8.98 ± 0.09 µg/mL (≈ 28.6 µM), the logP [6] was 3.48 and the “Centrifugation … (100%)” value [7] was 121%. For the same compound, the “Centrifugation: Result Range” value [7] was 121–148%.
